Measurements from patent US9504674B2, “TrkB agonists and methods of use” (EMORY UNIVERSITY, priority 2010, dated 2016).

How the values were obtained:
active caspase-3 [1] = experiment: Kainic acid (KA)-induced neuronal apoptosis in mice (active caspase-3 immunoblotting); type: in vivo, mouse; settings: 5 mg/kg oral
Description: C57BL/6J mice were orally administrated with 5 mg/kg of 4′-DMA-7,8-DHF and 7,8-DHF; at different time points, the mice were ip injected with 20 mg/kg KA for 2 h. The brain lysates were analyzed by immunoblotting with anti-p-TrkB, antiactive caspase-3 antibodies, respectively.
Male C57BL/6 mice aged of 60 days were orally injected with a single dose of 4′-DMA-7,8-DHF or 7,8-DHF ([…]). KA (20 mg/kg) (Sigma, MO) was i.p. injected. Animals were continually monitored for 2 h for the onset of seizure activity. At 0, 4 and 8 h following TrkB agonist treatment, the animals were sacrificed and the hippocampal section lysates were analyzed by immunoblotting with p-TrkB, active caspase-3 and total TrkB antibodies.
(§1) To quantitatively compare the anti-apoptotic activity by these two TrkB agonists, cortical neurons were pretreated with various concentrations of 4′-DMA-7,8-DHF and 7,8-DHF for 30 min, followed by […] for 16 h. Cell lysates were quantitatively analyzed with an active caspse-3 ELISA. […] To investigate whether these compounds exert any neuroprotective effects in animals, both compounds (5 mg/kg) were orally injected into mice. At 0, 2 h or 6 h, kainic acid (KA)(20 mg/kg) was administered intraperitoneally. At 2 h, mice were sacrificed and hippocampal regions were prepared. […] This kinetic spectrum tightly coupled to the TrkB activation status observed when treated with 7,8-DHF (FIG. 3C, right panel).

TrkB F616A = molecular target: T1, TrkB F616A (Mus musculus, UniProt P15209, F616A); experiment: Forced swim test in TrkB F616A knockin mice with or without 1NMPP1; type: in vivo; settings: drugs administrated for 5 days; for immobility time in forced swim test, TrkB F616A knockin mice, after 1NMPP1 treatment: 1NMPP1 (25 μM) in drinking water; for immobility time in forced swim test, TrkB F616A knockin mice, saline group: regular drinking water
T1 construct: from tissue; host or cells: TrkB F616A knock-in mice (brain; whole animal in the forced swim test)
T1 sequence (P15209 32-821 F616A): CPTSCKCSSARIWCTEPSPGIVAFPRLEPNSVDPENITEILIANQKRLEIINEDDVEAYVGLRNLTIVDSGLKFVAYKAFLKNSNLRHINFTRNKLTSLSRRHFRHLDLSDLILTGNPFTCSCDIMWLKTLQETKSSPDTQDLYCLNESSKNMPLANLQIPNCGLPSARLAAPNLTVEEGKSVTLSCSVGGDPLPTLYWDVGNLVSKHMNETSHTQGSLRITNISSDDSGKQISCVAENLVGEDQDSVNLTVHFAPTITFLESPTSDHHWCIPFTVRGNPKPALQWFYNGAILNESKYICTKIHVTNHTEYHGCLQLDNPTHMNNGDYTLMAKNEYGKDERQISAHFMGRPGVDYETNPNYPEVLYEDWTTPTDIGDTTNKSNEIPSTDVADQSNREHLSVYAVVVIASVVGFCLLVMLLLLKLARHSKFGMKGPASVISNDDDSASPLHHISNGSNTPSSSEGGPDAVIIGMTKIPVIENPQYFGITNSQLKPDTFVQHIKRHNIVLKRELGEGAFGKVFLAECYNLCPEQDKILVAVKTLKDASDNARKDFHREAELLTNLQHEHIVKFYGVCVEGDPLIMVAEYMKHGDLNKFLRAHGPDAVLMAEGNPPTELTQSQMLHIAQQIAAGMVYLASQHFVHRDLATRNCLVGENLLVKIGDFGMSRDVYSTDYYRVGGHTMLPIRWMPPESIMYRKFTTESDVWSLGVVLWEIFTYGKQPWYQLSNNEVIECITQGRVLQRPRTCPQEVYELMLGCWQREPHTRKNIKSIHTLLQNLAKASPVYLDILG
Description: Male TrkB knockin mice were given the regular drinking water or 1NMPP1 (25 μM) containing drinking water one day before we started to inject the drugs and sustained throughout the whole experiment. The indicated control (saline) and drugs were administrated for 5 days. […] None of the drugs produced a significant change in 1NMPP1 treated TrkB KI mice (n=6 to 7 mice) as compared to control.
TrkB F616A knockin mice were used to assess whether the behavior responses by 7,8-DHF and its derivative is mediated by TrkB receptor. Transgenic mice were subjected to saline or 1NMPP1 pretreatment, respectively.

[2] = test system: dentate gyrus progenitor proliferation; experiment: Neurogenesis assay (BrdU positive cells in dentate gyrus); type: in vivo, mouse; settings: 5 mg/kg oral for 21 days, BrdU 50 mg/kg i.p., 2 h
Description: 4′-Dimethylamino-7,8-dihydroxyflavone and 7,8-dihydroxyflavone promote neurogenesis. Male C57BL/6J mice were orally administrated with 5 mg/kg 4′-DMA-7,8-DHF and 7,8-DHF and vehicle solvent for 21 days and followed by 50 mg/kg BrdU ip injection. In 2 h, the mice were perfused and brain sections were immunostained with anti-BrdU and DAPI. The positive cells in dentate gyms were highlighted by arrow (left panels). Quantitative analysis of the BrdU positive cells in dentate gyms (right panel).
Adult male mice (2-3 months old) were orally injected with Saline, 4′-DMA-7,8-DHF and 7,8-DHF (5 mg/kg) for 21 days. Then Brdu (50 mg/kg) was i.p. injected. In 2 h, the mice were perfused with 4% paraformaldehyde. Immunohistochemical staining was performed on formalin-fixed paraffin-embedded sections. Sections from brain were cut, deparaffinized in xylene and rehydrated in graded alcohols. The slides were boiled in 10 mM citric acid (pH 6.0) for 10 min followed by an incubation in 2 N HCl for 10 min in room temperature. The slides were then permeabilized and blocked with 1% BSA in 0.2% PBST. The incorporated BrdU were stained using anti-BrdU-FITC (Abcam, USA) at 4° C. for 16 hr. […] The slides were finally mounted with AquaMount (Lerner Laboratories, USA) containing 0.01% 1,4-diazobicyclo(2,2,2)octane and examined under a fluorescence microscope. […]

Akt and MAPK = experiment: Downstream p-Akt / p-MAPK signaling in mouse brain after oral administration (immunoblotting, p-Akt ELISA); type: in vivo; settings: 1 mg/kg oral; for Akt and MAPK activation (TrkB signaling) in mouse brain at 2 h: C57BL/6J mice, p-Akt 473 and p-MAPK immunoblotting
Description: The data were from two sets of replicated experiments.
1 mg/kg of various compounds were orally administrated into C57 BL/6J mice and TrkB phosphorylation and its downstream signaling cascades including Akt and MAPK in mouse brain were analyzed by immunoblotting at 2 h.
The brain lysates were prepared and analyzed with p-Akt ELISA kit.
The compounds were orally injected (1 mg/kg) into C57BL/6J mice. The TrkB and its downstream signaling cascades activation at 2 h were examined after drug administration with mouse brain tissues. […] The downstream p-Akt and p-MAPK tightly coupled to p-TrkB signals.

active caspase-3 [3] = experiment: Active caspase-3 ELISA in glutamate-treated cortical neurons; type: cell-based, rat; settings: 30 min pretreatment, then glutamate 16 h; for caspase-3 activation after glutamate: 50 nM or higher
Description: 4′-Dimethylamino-7,8-dihydroxyflavone prevents neurons from apoptosis in a TrkB-dependent manner. Cortical neurons were prepared from E16 rat embryonic. The neurons were pretreated with different doses of compounds as indicated for 30 min, followed by 50 μM glutamate for 16 h. The cell lysates were analyzed by active caspase-3 ELISA.
as §1

Row | SMILES | KA-induced neuronal apoptosis over time after dosing (active caspase-3 [1]; KA 20 mg/kg i.p. at 0, 2 h or 6 h, hippocampal lysates) | immobility time in forced swim test, TrkB F616A knockin mice, after 1NMPP1 treatment (TrkB F616A) | immobility time in forced swim test, TrkB F616A knockin mice, saline group (TrkB F616A) | neurogenesis (BrdU) compared to vehicle control [2] | Akt and MAPK activation (TrkB signaling) in mouse brain at 2 h (Akt and MAPK) | inhibition of caspase-3 activation after glutamate (active caspase-3 [3]; 10 nM) | caspase-3 activation after glutamate (active caspase-3 [3]) | KA-induced caspase-3 activation at 4 h (active caspase-3 [1]; KA 20 mg/kg i.p., 4 h) | active caspase-3 at 8 h (active caspase-3 [1]; KA 20 mg/kg i.p., 8 h) | Akt activation in mouse brain (p-Akt ELISA), compared with compound i (Akt and MAPK; brain lysates, time course)
1 | CN(C)c1ccc(-c2cc(=O)c3ccc(O)c(O)c3o2)cc1 [4′-DMA-7,8-DHF, 4′-dimethylamino-7,8-dihydroxyflavone] | gradually decreased over time | neither 4′-DMA-7,8-DHF nor 7,8-DHF had any significant effect on the immobility time | substantially reduced the immobility time | significantly increased neurogenesis | potently activated TrkB signaling in mouse brain | more robust inhibitory effect than 7,8-DHF | substantially blocked caspase-3 activation | – | – | –
2 | O=c1cc(-c2ccccc2)oc2c(O)c(O)ccc12 [7,8-DHF, 7,8-dihydroxyflavone, reference compound] | – | neither 4′-DMA-7,8-DHF nor 7,8-DHF had any significant effect on the immobility time | substantially reduced the immobility time | significantly increased neurogenesis | – | – | substantially blocked caspase-3 activation | reduced | slightly increased | –
3 | CN(C)c1ccc(-c2cc(=O)c3ccc4nc[nH]c4c3o2)cc1 [compound m, 8-(4-(dimethylamino)phenyl)chromeno[7,8-d]imidazol-6(1H)-one] | – | – | – | – | potently activated TrkB signaling in mouse brain | – | – | – | – | more robust and sustained Akt activation than compound i
